{"source": "patent US20230022880A1", "about": "“Antimicrobial Composition” (INSTITUTE OF TECHNOLOGY SLIGO, priority 2019, published 2023)", "test_system": "several species of micro-organisms (Candida spp, Pseudomonas spp, E. coli)", "assay": "Well diffusion bioassay, zones of inhibition", "type": "cell-based", "details": "NaCl tested on its own", "description": "Escherichia coli (NCIMB 8545), Staphylococcus aureus (NCIMB 9518) and Pseudomonas aeruginosa (NCIMB 8626) are grown on nutrient agar or in nutrient broth for 24 hrs at 37° C.\nCandida albicans (NCIMB 3179) and Saccharomyces cerevisiae are grown on sabaroud dextrose agar or in sabaroud dextrose broth for 24 hrs at 37° C. […]\nBacterial growth is monitored by measuring the culture optical density (OD) in a spectrophotometer (Anthos 2010) at a wavelength of 620 nm.\nThe formulations were assessed for antimicrobial activity against several species of micro-organisms (several of which produce catalase; Candida spp, Pseudomonas spp, E. coli) using the well diffusion bioassay, results were obtained by measuring the zones of inhibition (n=3).\nAgar plates are inoculated by swabbing overnight culture onto the plate surface. Plates are allowed to stand at room temperature for 15 minutes before use. Wells 8.2 mm diameter are bored into the surface of the agar. A 180 μl sample is placed into each well. The samples diffuse into the agar around the well and are assayed for an ability to produce a zone of inhibition. Plates are incubated for 24, 48 or 72 hrs and zones of inhibition are measured using an Autodata automatic zone reader. The diameter of zones, including the diameter of the well (8.2 mm), is recorded. […]"}
{"compound": "[Cl-].[Na+]", "note": "[NaCl, sodium chloride]", "values": [{"measurement": "Antimicrobial activity", "result": "no discernible activity"}]}
